Experimental data: publication PMC5078025, “Necrosis-inducing peptide has the beneficial effect on killing tumor cells through neuropilin (NRP-1) targeting” (Oncotarget, 2016)
Bridge positions count the residues as written; N and C are the ends. Ends that are not written are not given here.

How the values were obtained:
BALB/c mice = assay: Toxicity and movement activity after i.v. injection; conditions: for Movement Activities: BALB/c (around 20 gm) mice, i.v. single dose 75 μl of 1 mM, within 30 minutes; for toxicity by mouse movements: BALB/c mice, i.v. single dose 75 μl of 1 mM per mouse, movements within 30 minutes, observed up to one week
Description: To design a MTD peptide anti-cancer drug, the MTD peptide was fused to various known tumor-homing motifs through its N-terminal or C-terminal region, and a linker was introduced between these two motifs to impart flexibility and minimize steric hindrance (Figure 1A, Supplementary Table S1). The MTD peptides fused with tumor-homing motifs (hereafter designated TU:MTDs) were synthesized as linear or cyclic entities using L-amino acids (Supplementary Table S1), and were evaluated for their killing activity using CT26 cells in vitro (Supplementary Figure S1). […] Thus, BALB/c mouse movements were also evaluated within 30 minutes of the intravenous injection of a single dose of 75 μl of 1 mM TU:MTDs per mouse. […] We also searched for a TU:MTD with a potent in vivo effect by observing tumor volumes in three BALB/c mice bearing CT26 adenocarcinoma that were injected with 100 μl of 1 mM TU:MTDs per day for 2 or 3 consecutive days (Figure 1B). […] The tumor-homing motif of TU17:MTD has a “RPARPAR” sequence containing the C-end rule (CendR) element that has known to bind to neuropilin-1 (NRP-1), although the “RPARPAR” sequence is located at the N-terminus of the MTD rather than at the C-terminus. […]
1 mM) were i.v. injected into BALB/c (around 20 gm) mice at a single dose. “Slow” means not moving around in the cage.
“Normal” means normally moving around in the cage. “Toxic” means necrosis in tail vein within 2 ~ 3 days after injection.
Abbreviation: NR; no regression, ND; not determined. […]

[1] = system: subcutaneous CT26 colorectal carcinoma tumors; assay: Tumor volume in mice bearing subcutaneous CT26 tumors; assay type: in vivo; conditions: BALB/c mice bearing CT26 tumor, i.v. of 1 mM TU:MTDs twice or three times, n = 3, observed until 9 days
Description: Figure 1 Identification of TU17:MTD as a tumor targeting peptide (A) Schematic diagram of the fusion peptides consisting of the tumor-homing motif, linker, and mitochondrial targeting domain (MTD). (B) Tumors were generated over 2 weeks after s.c. injection of CT26 cells into the backs of BALB/c mice. […] Arrows indicate the points of peptide injection. P values < 0.02 (control group vs TU17:MTD at day 5, 6, 7, 8, and 9) (C) HCT116, HeLa, A549, MCF-7, PC3, and BJAB cells were treated with TU17:MTD (0 ~ 20 μM) for 30 minutes, and cell viability was monitored using XTT assays. *P < 0.05 (D) Primary splenocytes and macrophages were treated with TU17:MTD (0 ~ 20 μM) for 30 minutes, and cell viability was monitored by XTT assay. *P < 0.05 (E) CT26 cells were treated with R8:MTD, TU17:MTD, TU17-2:MTD or TU17:MTD^4A (0 ~ 40 μM) for 4 hours, and cell viability was monitored by XTT assay. Results in C to E are expressed as means ± SD (triplicates), and are representative of at least two independent experiments. P values are for experimental groups versus controls and were calculated using Dunnett's t-test. *P < 0.05.
Figure 3 Effects of TU17:MTD, TU17-2:MTD, and TU17-2:D(KLAKLAK)2 on tumor tissues in vivo (A) Tumors were generated over 7~8 days after s.c. injection of CT26 cells into the backs of BALB/c mice. […]

Row | Sequence | Movement Activities (BALB/c mice) | toxicity by mouse movements (BALB/c mice) | Toxicity/Tumor growth [1]
1 | KLLNLISKLFCRGDKRLYDC (disulfide 11-20 (inferred)) [TU11:MTD] | Slow | toxic | Toxic
2 | CNGRCVSGCAGRCGGKLLNLISKLF [TU2:MTD, MTD peptide fused with tumor-homing motif, linear] | Normal | no apparent toxicities | NR (NR; no regression)
